Measurements reported in patent US5374618A, “Calcitonin peptides, and gene related pharmaceutical compositions” (Celltech Limited, priority 1983, dated 1994).
Each block holds one compound with its values, some of them ahead of it.

Legend:
[1] = tested on: antibody raised against Tyr-(CGRP amino acids 25-37)-amide; assay: Radioimmunoassay cross-reactivity with 125I-Tyr-(CGRP amino acids 25-37)-amide tracer; assay type: binding, rabbit; settings: 1:12500 dilution of serum, 1800 cpm tracer, 400 μl assay
Protocol: Cells from a 500 ml culture were harvested and lysed in a lysozyme/sodium deoxycholate mixture (5 ml), then treated with DNase for 30 mins. at 5° C. (Emtage J. S. et al PNAS (1983), 80, p 3671-3675). […] Radioimmunoassay was carried out in 0.05M phosphate buffer pH 7.4 in a final volume of 400 ul (see Girgis, S. I. et al J. Endocrinol 78, 372-382). Antiserum was raised in rabbits, using the known techniques, against Tyr-(CGRP amino acids 25-37)-amide and conjugated to chick ovalbumin (Reichlin, M.1980, Meth.Enzymol 70 159-165) and against ^125 I Tyr-(CGRP amino acids 25-37)-amide tracer.
The tracer was iodinated using the Chloramine T method of Hunter and Greenwood.

[2] = tested on: pentobarbitone anaesthetised rat; assay: Cardiovascular actions (mean arterial pressure, heart rate) after i.v. administration in anaesthetised rats; assay type: in vivo
Protocol: Groups of 4 to 6 male Sprague-Dawley rats (285-315 g) were anaesthetised with sodium pentobarbitone (60 mg Kg^-1 i.p.). The trachea, left carotid artery and left jugular vein were cannulated. Blood pressure was recorded from the carotid artery on a Grass polygraph via a Statham P23 ID pressure transducer and mean arterial pressure derived from the trace. Heart rate was measured by a tachograph (Grass model 7P4) triggered by the blood pressure signal. […] Purified rat CGRP was from the same source. All synthetic preparations were subject to mass spectrometry (M-Scan Ltd.) to confirm structure and purity before use. […] All compounds were administered intravenously except for mepyramine (s.c.). […] The peak fall in mean arterial pressure (MAP) and heart rate (HR) after 2 min was measured.
The mechanism of action of PDA-4 was not examined.

[3] = tested on: guinea-pig right atrial preparation; assay: Rate and force of contraction of isolated guinea-pig right atrium; assay type: cell-based
Protocol: Male Dunkin Hartley guinea-pigs (280-400 g) were killed by cervical dislocation and exsanguinated. The heart was removed, the right atrium dissected out and mounted under 0.5 g tension in Krebs solution (mM): NaCl 118, KCl 4.7, CaCl2 2.5, KH2 PO4 1.18, NaHCO3 25, MgSO4 1.18 and glucose 11.1, at 34° C. bubbled with 95:5 02 :CO2. Atrial force and rate were measured isometrically by a Grass FT.03 transducer and recorded on a Grass polygraph. Single doses of either human or rat CGRP were given in a random order.

[4] = cumulative doses at 2 min intervals, anaesthetised rat

Compound: Tyr-CGRP (amino acids 1-8): tyrosinated fragment of human CGRP, amino acids 1 to 8 (ACDTATCV; Calcitonin gene-related peptide 1 N-terminal tyrosine added; UniProt P06881 83-90, looked up, fragment)
- cross-reaction with the antibody (displacement of tracer) [1]: does not cross-react

Compound: human calcitonin: human calcitonin, tested for cross-reaction in the radioimmunoassay
- cross-reaction with the antibody (displacement of tracer) [1]: does not cross-react

Compound: rat CGRP: synthetic rat CGRP preparation from Peninsula Laboratories
- fall in mean arterial pressure (MAP) [2, 4]: dose-dependent fall in MAP
- increase in heart rate (HR) [2, 4]: increase in HR
- dose representing a 50% decrease in blood pressure ([2]; pentobarbitone anaesthetised rat): 0.23 nmol/kg
- potency relative to human CGRP at increasing rate (times more potent) ([3]; isolated right atrium): approximately 10 times
- potency relative to human CGRP in evoking increases in force ([3]; isolated right atrium): equipotent
- increase in rate or force in presence of propranolol ([3]; propranolol): Neither the increase in rate or force produced by rat CGRP was blocked
- cross-reaction with the antibody (displacement of tracer) [1]: recognises antigenic determinants

Further lines, results first:

- cross-reaction with the antibody (displacement of tracer) [1]: does not cross-react
Compound: CC(C)C[C@H](NC(=O)[C@H](CCCCN)NC(=O)CNC(=O)[C@H](CC(C)C)NC(=O)[C@@H](NC(=O)[C@@H]1CSSC[C@H](N)C(=O)N[C@@H](CO)C(=O)N[C@@H](CC(N)=O)C(=O)N[C@@H](CC(C)C)C(=O)N[C@@H](CO)C(=O)N[C@@H]([C@@H](C)O)C(=O)N1)C(C)C)C(=O)N[C@@H](CO)C(=O)N[C@@H](CCC(N)=O)C(=O)N[C@@H](CCC(=O)O)C(=O)N[C@@H](CC(C)C)C(=O)N[C@@H](Cc1c[nH]cn1)C(=O)N[C@@H](CCCCN)C(=O)N[C@@H](CC(C)C)C(=O)N[C@@H](CCC(N)=O)C(=O)N[C@H](C(=O)N[C@@H](Cc1ccc(O)cc1)C(=O)N1CCC[C@H]1C(=O)N[C@@H](CCCNC(=N)N)C(=O)N[C@H](C(=O)N[C@@H](CC(N)=O)C(=O)N[C@H](C(=O)NCC(=O)N[C@@H](CO)C(=O)NCC(=O)N[C@H](C(=O)N1CCC[C@H]1C(N)=O)[C@@H](C)O)[C@@H](C)O)[C@@H](C)O)[C@@H](C)O [salmon calcitonin]

- cross-reaction with the antibody (displacement of tracer) [1]: does not cross-react
Compound: katacalcin: carboxy terminal peptide designated PDN-21 (Katacalcin) of the human calcitonin polyprotein (DMSSDLERDHRPHVSMPQNAN; Katacalcin; UniProt P01258 121-141, looked up)
